3 compounds from patent publication US10758473B2, “Extract of plant origin of globularia and method for obtaining said extract by in vitro plant culture” (Sederma, priority 2011, dated 2020) can be followed below.

For test [1], the target named is bovine serum albumin (BSA) (Bos taurus, UniProt P02769). The test is described as follows: Non-enzymatic glycation of BSA. It counts as biochemical. The method, then: 1) Non-Enzymatic Glycation of BSA
This simple test reproduces in vitro a stress to which regular skin proteins are subjected: their functional alteration by a non-enzymatic glycation phenomenon.
The study model used is a bovine serum albumin (BSA), which is contacted with a physiological reducing sugar, the fructose, giving a spontaneous and slow reaction between the two molecules that can be accelerated by temperature. In this test, the BSA and fructose are incubated in the presence or absence of the test products at 50° C. for 7 days. The glycation end products have a natural fluorescence that can be quantified using a fluorimeter (λex=360 nm and λem=460 nm). 0.03% Aminoguanidine is used as a positive control of glycation inhibition.
The anti-glycation effect of the extract of Globularia cordifolia was studied using a protein model, BSA and a natural reducing sugar, fructose which glycates, i.e. binds, to the protein in a non-enzymatic manner. The product of this binding is fluorescent and is monitored with a recording system.

The subject of another test is proteasome. The experiment in a line: Residual proteasome activity in human dermal fibroblasts after H2O2 stress. Conditions: Trolox 500 μm. The test is classed as cell-based. From the text:
Human dermal fibroblasts were placed or not (negative control) in contact with the Globularia cordifolia extract until they grew to confluence. The Globularia cordifolia extract was then removed and the cells were exposed to the oxidant model, hydrogen peroxide, to produce accelerated ageing. After this stage, the cells were again exposed to the Globularia cordifolia extract for 3 days and then were reseeded and subjected to a further oxidative stress to amplify the effect of the initial stress. The cells were then homogenized and the residual proteasome activity measured by monitoring cleavage of a model fluorescent peptide. Results were standardized by parallel measurement of protein.

The test system of the next test is creatine kinase. The experiment in a line: Residual intracellular creatine kinase activity in human dermal fibroblasts after H2O2 stress. The test is classed as cell-based. Conditions: Trolox at 500 μm. From the text:
Creatine kinase is a ubiquitous enzyme which exists in two isoforms in the skin. It is used to store energy in cells and enables tissues to respond to urgent energy requirements. This enzyme converts creatine into phosphocreatine using ATP which is converted back to ADP. When necessary, the enzyme works in the reverse direction and returns energy. Its activity falls with age as it is one of the preferred targets of reactive oxygen groups. Maintaining and increasing the activity of this enzyme is therefore desirable. Human dermal fibroblasts were placed in contact with the Globularia cordifolia extract according to the invention for 3 days. The cells were then exposed without said extract to an oxidative stress (hydrogen peroxide). After a further 3 days' contact with the Globularia cordifolia extract, the cells were again exposed to the same oxidative stress before being homogenized to measure residual intracellular creatine kinase activity. Activity was measured from the production of ATP from phosphocreatine and ADP. ATP is then measured from an enzymatic reaction leading to the formation of NADPH, readed at 340 nm. Results were standardized by measuring total protein (BCA).

Test [2] has as its system mitochondrial membrane potential. The experiment in a line: Mitochondrial membrane potential in fibroblasts after H2O2 stress. It counts as cell-based, human. Conditions: Trolox at 500 μm. The method, then:
Human dermal fibroblasts were placed in contact with the Globularia cordifolia extract according to the invention for 3 days. The cells were then exposed without said extract to an oxidative stress (hydrogen peroxide). After a further 3 days' contact with the Globularia cordifolia extract, the cells were again exposed to the same oxidative stress before being homogenized to measure residual intracellular creatine kinase activity. Activity was measured from the production of ATP from phosphocreatine and ADP. ATP is then measured from an enzymatic reaction leading to the formation of NADPH, readed at 340 nm. Results were standardized by measuring total protein (BCA). A fall in this membrane potential is a warning sign of ageing and cell death and it is therefore essential that this be maintained to preserve the mitochondrial ability to produce ATP. Membrane potential was measured using a specific label sensitive to mitochondrial proton micro-variations. The label exists in two forms, monomeric and polymeric, which have different emission spectra. A high membrane potential promotes the polymeric form. An increase in the monomer/polymer ratio (520 nm/590 nm) produces therefore a fall in Δψ. A high ratio is therefore less conducive to cell survival than a lower ratio. The same fibroblast cultures than used for creatine kinase there above were used.

Test [3] deals with SOD (superoxide dismutase). The experiment in a line: Intracellular SOD activity in human keratinocytes treated with hydrogen peroxide. The test is classed as cell-based. Conditions: Trolox at 0.012%. From the text:
A preliminary test on the antioxidant skin potential had shown that human keratinocytes treated with the hydrogen peroxide, a model of oxidative stress, increased their intracellular activity of SOD (superoxide dismutase) by 22%*(p<0.01) compared to the negative control in the presence of the Globularia cordifolia extract.

The test system of a further test is Glutathion. The experiment in a line: Glutathion synthesis in keratinocytes. It counts as cell-based. Conditions: Trolox at 0.012%.
In a further test the test system is intracellular peroxide. The test is described as follows: Endogenous peroxides in human keratinocytes (DCFH-DA probe). It counts as cell-based. Conditions: Trolox at 500 μm. The procedure: This factor can be measured reliably using a probe called DCFH-DA, whose characteristic is to fluoresce in contact with peroxides once it entered the cell. Confluence human keratinocytes were placed in contact or not (negative control) for 24 h with the Globularia cordifolia extract until they grew to confluence. The cells were then exposed to and metabolized the DCFH label in a buffer. The label can then react with both intracellular peroxides. The medium was then replaced with one containing or not the Globularia cordifolia extract and the oxidizing agent model hydrogen peroxide (neither the medium nor the Globularia cordifolia extract reacts directly with H2O2). Fluorescence was read in order to estimate the level of the intracellular peroxide which had reacted with the label. The number of cells was quantified using a nuclear labeling method (Hoechst 33258).

The subject of a further test is sirtuin-1. The test is described as follows: Intracellular sirtuin-1 in human keratinocytes (ELISA). The test is classed as cell-based. Conditions: Trolox at 500 μm. From the text: Hormetic effects such as calorie restriction or contact with hormetic molecules increase sirtuin enzymes and the lifespan of different organisms. The sirtuins act particularly on FOXO factor deacetylation and prevent triggering of the production of apoptotic proteins. The sirtuins also stimulate cellular anti-oxidant defenses and purification mechanisms (detoxification) and help to preserve mitochondrial function and therefore energy production. This increases survival and resistance to stresses. Human keratinocytes were cultured in the presence or absence of the Globularia cordifolia extract for 6 days and were then grinded and the intracellular levels of sirtuin-1 were measured using an ELISA method. Results were standardized by parallel measurement of total protein (BCA).

Another test can be described thus: DPPH anti-radical test. The test is classed as biochemical. Conditions: positive control, 0003% of caffeic acid. From the text: 2) DPPH Anti-Radical Test The DPPH (1, 1-diphenyl-2-picryl hydrazyl) is a stable free radical which is widely used for the detection of free radical scavengers. This molecule by losing its radical character is converted to DPPH2 (1, 1-diphenyl-2-picryl hydrazine). This conversion is accompanied by discoloration (purple→yellow) which can be monitored over time by spectrophotometry at 517 nm.
Background: The DPPH test is a chemical assay of radical scavenging.

Test [4] is described as follows: Anti-singlet-oxygen test (Rose Bengal, visible light, uric acid destruction). Conditions: positive control, caffeic acid at 0002%. The test is classed as biochemical. The text has this:
Molecular oxygen (O2) plays a vital role as an acceptor of the respiratory chain terminal electrons. However, this metabolism and others, as well as external factors, such as UV radiations, lead to the occurrence of certain derivatives particularly reactive (singlet oxygen, hydroxyl radical, superoxide anion), which will cause oxidative damage to lipids, proteins and nucleic acids, even in healthy bodies. Singlet oxygen is one of these very energetic and highly reactive forms of oxygen. It is possible to produce experimentally in vitro singlet oxygen with dyes and UVA photons or visible light. The test presented thereafter uses the Rose Bengal, a dye and visible light. The purpose of this test is to evaluate the degradation of uric acid by singlet oxygen formed from the Rose Bengal, under the action of visible light. The visualization of the production of singlet oxygen is obtained by following the destruction of uric acid at 292 nm. In the presence of a compound capable of neutralizing singlet oxygen, this destruction will be slowed. The caffeic acid at 0002% is used as a positive control of an anti-singlet-oxygen activity Data in Table 3 below.

Chain of bovine serum albumin (BSA) (P02769 25-607): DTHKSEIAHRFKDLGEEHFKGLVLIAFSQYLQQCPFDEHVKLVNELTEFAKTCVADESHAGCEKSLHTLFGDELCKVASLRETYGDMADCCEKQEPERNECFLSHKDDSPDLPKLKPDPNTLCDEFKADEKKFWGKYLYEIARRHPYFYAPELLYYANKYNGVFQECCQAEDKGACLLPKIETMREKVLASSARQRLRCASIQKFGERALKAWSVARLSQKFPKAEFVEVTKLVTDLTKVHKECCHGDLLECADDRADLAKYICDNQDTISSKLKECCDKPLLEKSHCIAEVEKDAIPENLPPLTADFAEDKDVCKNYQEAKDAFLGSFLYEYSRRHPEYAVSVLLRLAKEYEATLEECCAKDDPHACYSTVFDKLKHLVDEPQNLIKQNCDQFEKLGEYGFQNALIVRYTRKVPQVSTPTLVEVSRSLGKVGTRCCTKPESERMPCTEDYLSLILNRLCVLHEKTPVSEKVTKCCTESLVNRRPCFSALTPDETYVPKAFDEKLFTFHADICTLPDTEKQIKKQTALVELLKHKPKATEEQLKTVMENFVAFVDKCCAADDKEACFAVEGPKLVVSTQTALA

Consider `N=C(N)NN` [Aminoguanidine], for which, in test [1] (aminoguanidine at 0.03%), the “Glycation % Change, positive control” value was “Positive control aminoguanidine at 0.03%: −85%; p < 0.01”. The glycation inhibition versus the control in test [1] (positive control, 0.03% Aminoguanidine) was 85%.
Consider `Cc1c(C)c2c(c(C)c1O)CCC(C)(C(=O)O)O2` (centres unmarked) [Trolox], for which the “proteasome activity % Change, positive control” value with proteasome is given as “Positive control Trolox 500 μm: +24%; (p < 0.05)”. In addition, the “Creatin kinase activity % Change, positive control” value with creatine kinase is recorded as “Positive control Trolox at 500 μm: +28%; p < 0.05”. In test [2], the “Mitochondrial membrane potential % Change, positive control” value is given as “Positive control Trolox at 500 μm: +36%; p < 0.05”. Besides, in test [3], the “SOD, positive control” value is recorded as 21%. Further, the “GSH, positive control” value with Glutathion worked out at 53%. Also, in the test on intracellular peroxide, the “Intracellular peroxide % Change, positive control” value is “Positive control Trolox at 500 μm: −91%; (p < 0.01)”. Also, the “Sirtuin-1 % Change, positive control” value in the test with sirtuin-1 is “Positive control Trolox at 500 μm: +27%; p < 0.05”.
Consider `O=C(O)/C=C/c1ccc(O)c(O)c1` [caffeic acid], for which, in “DPPH anti-radical test”, the “anti-radical activity versus the control” value is −85%. Also, the “anti-singlet-oxygen activity versus the control” value in test [4] was “+73%”.
